In US11591336B2 (Relay Therapeutics, Inc., priority 2017, dated 2023):
Counter-ions that a name gives are not always drawn.

Target: SHP2 (Homo sapiens (Human), UniProt Q06124)
Assay: SHP2 Allosteric Inhibition Assay (DiFMUP prompt fluorescence)
Assay type: biochemical
Details: 0.25 nM SHP2 activated with 0.5 μM peptide IRS1_pY1172(dPEG8)pY1222; substrate DiFMUP 100 μM; 25° C.

Chain of SHP2 (Q06124 whole entry): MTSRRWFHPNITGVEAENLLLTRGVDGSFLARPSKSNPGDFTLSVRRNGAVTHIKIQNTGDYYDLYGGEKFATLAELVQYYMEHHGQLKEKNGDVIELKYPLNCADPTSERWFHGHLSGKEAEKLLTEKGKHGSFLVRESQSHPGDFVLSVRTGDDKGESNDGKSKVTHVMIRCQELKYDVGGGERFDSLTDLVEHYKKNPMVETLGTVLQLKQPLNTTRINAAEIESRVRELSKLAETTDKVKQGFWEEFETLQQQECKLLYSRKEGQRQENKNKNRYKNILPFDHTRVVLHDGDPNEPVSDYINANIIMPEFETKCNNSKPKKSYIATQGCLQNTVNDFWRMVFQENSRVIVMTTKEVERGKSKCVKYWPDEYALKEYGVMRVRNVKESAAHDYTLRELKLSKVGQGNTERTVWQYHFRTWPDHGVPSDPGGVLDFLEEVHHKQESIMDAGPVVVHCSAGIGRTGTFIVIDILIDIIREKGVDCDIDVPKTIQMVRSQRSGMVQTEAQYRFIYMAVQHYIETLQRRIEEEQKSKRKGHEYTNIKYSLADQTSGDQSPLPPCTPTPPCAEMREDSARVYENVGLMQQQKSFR

Question: Which IC50 does the source give for `C[C@@H]1OCC2(CCN(c3cnc4c(N5CCCc6nc(C7=CCOCC7)ccc65)n[nH]c4n3)CC2)[C@@H]1N` [Compound 237] here?
Answer: The IC50 was less than 1 µM.

Question: Which IC50 does the source give for `C[C@@H]1OCC2(CCN(c3cnc4c(N5CCNc6cc(-c7ccnnc7)ccc65)n[nH]c4n3)CC2)[C@@H]1N` [Compound 332] here?
Answer: Its IC50 is less than 1 µM.

Question: `C[C@@H]1OCC2(CCN(c3cnc4c(N5CC[C@H](C)c6ncc(F)cc65)n[nH]c4n3)CC2)[C@@H]1N` (single isomer, unassigned) [Compound 263, hydrochloride] was tested. Which IC50 did it give?
Answer: The IC50 was less than 1 µM.

Question: For `CC1(CN)CCN(c2cnc3c(Sc4ccccc4Cl)n[nH]c3n2)CC1` [Compound 9, (1-(3-((2-chlorophenyl)thio)-1H-pyrazolo[3,4-b]pyrazin-6-yl)-4-methylpiperidin-4-yl)methanamine], which IC50 is on record?
Answer: The IC50 was less than 1 µM.

Question: For `CC(C)C1CCN(c2n[nH]c3nc(N4CCC(C)(CN)CC4)cnc23)c2ccccc21` (centres unmarked) [Compound 89], which IC50 is on record?
Answer: The IC50 was less than 1 µM.

Question: For `CC1(CN)CCN(c2cnc3c(Sc4ccc5cccnc5c4Cl)n[nH]c3n2)CC1` [Compound 516, (1-(3-((8-chloroquinolin-7-yl)thio)-1H-pyrazolo[3,4-b]pyrazin-6-yl)-4-methylpiperidin-4-yl)methanamine], which IC50 is on record?
Answer: The IC50 was less than 1 µM.

Question: How did the IC50 turn out when `CC1(N)CCN(c2cnc3c(N4CCCc5c(-c6cccnc6)cccc54)n[nH]c3n2)CC1` [Compound 60] was run?
Answer: Its IC50 is less than 1 µM.

Question: With `CC(c1ccccc1)c1n[nH]c2nc(N3CCC(C)(CN)CC3)cnc12` (centres unmarked) [Compound 17, (4-methyl-1-(3-(1-phenylethyl)-1H-pyrazolo[3,4-b]pyrazin-6-yl)piperidin-4-yl)methanamine] as the molecule, how does the IC50 read?
Answer: The IC50 was 1 to 10 µM.

Question: Which IC50 does the source give for `CNC(=O)c1nccc2c1CCCN2c1n[nH]c2nc(N3CCC4(CC3)CO[C@@H](C)[C@H]4N)cnc12` [Compound 404, 1-{6-[(3S,4S)-4-amino-3-methyl-2-oxa-8-azaspiro[4.5]decan-8-yl]-1H-pyrazolo[3,4-b]pyrazin-3-yl}-N-methyl-1,2,3,4-tetrahydro-1,6-naphthyridine-5-carboxamide] here?
Answer: Its IC50 is less than 1 µM.

Question: With `Cn1cc(-c2cccc3c2CCCN3c2n[nH]c3nc(N4CCC(C)(CN)CC4)cnc23)cn1` [Compound 121] as the molecule, how does the IC50 read?
Answer: Its IC50 is less than 1 µM.

Question: With `CNC(=O)C1CCN(c2n[nH]c3nc(N4CCC(C)(CN)CC4)cnc23)c2ccccc21` (centres unmarked) [Compound 100, 1-(6-(4-(Aminomethyl)-4-methylpiperidin-1-yl)-1H-pyrazolo[3,4-b]pyrazin-3-yl)-N-methyl-1,2,3,4-tetrahydroquinoline-4-carboxamide] as the molecule, how does the IC50 read?
Answer: The IC50 was less than 1 µM.

Question: How did the IC50 turn out when `C[C@@H]1OCC2(CCN(c3cnc4c(N5CCCc6c5ccnc6N5CCOCC5)n[nH]c4n3)CC2)[C@@H]1N` [Compound 307] was run?
Answer: Its IC50 is less than 1 µM.

Question: How did the IC50 turn out when `C[C@H]1CCc2ccccc2N1c1n[nH]c2nc(N3CCC(C)(N)CC3)cnc12` [Compound 35] was run?
Answer: The IC50 was less than 1 µM.

Question: For `CC1(CN)CCN(c2cnc3c(N4CCCc5cc(-c6ncon6)ccc54)n[nH]c3n2)CC1` [Compound 172, (1-(3-(6-(1,2,4-oxadiazol-3-yl)-3,4-dihydroquinolin-1(2H)-yl)-1H-pyrazolo[3,4-b]pyrazin-6-yl)-4-methylpiperidin-4-yl)methanamine], which IC50 is on record?
Answer: The IC50 was less than 1 µM.

Question: How did the IC50 turn out when `CC(=O)N1CCN(c2n[nH]c3nc(N4CCC5(CC4)CO[C@@H](C)[C@H]5N)cnc23)c2ccccc21` [Compound 235] was run?
Answer: Its IC50 is less than 1 µM.

Question: How did the IC50 turn out when `CC1(CN)CCN(c2cnc3c(Nc4ccnc(Cl)c4Cl)n[nH]c3n2)C1` (centres unmarked) [Compound 499, 6-(3-(Aminomethyl)-3-methylpyrrolidin-1-yl)-N-(2,3-dichloropyridin-4-yl)-1H-pyrazolo[3,4-b]pyrazin-3-amine] was run?
Answer: Its IC50 is less than 1 µM.

Question: With `CC1(CN)CCN(c2cnc3c(N4CCCc5c(-c6ccc(F)c(F)c6)cccc54)n[nH]c3n2)CC1` [Compound 70] as the molecule, how does the IC50 read?
Answer: The IC50 was less than 1 µM.

Question: For `C[C@@H]1OCC2(CCN(c3cnc4c(N5CCCc6c5ccc(C#N)c6[C@H]5CCCO5)n[nH]c4n3)CC2)[C@@H]1N` [Compound 524], which IC50 is on record?
Answer: The IC50 was less than 1 µM.

Question: With `Cc1nccc2c1CCCN2c1n[nH]c2nc(N3CCC4(CC3)CO[C@@H](C)[C@H]4N)cnc12` [Compound 233] as the molecule, how does the IC50 read?
Answer: Its IC50 is less than 1 µM.

Question: `C[C@H](N)C1(C)CCN(c2cnc3c(N4CCCc5ncccc54)n[nH]c3n2)CC1` (single isomer, unassigned) [Compound 110] was tested. Which IC50 did it give?
Answer: Its IC50 is less than 1 µM.

Question: Which IC50 does the source give for `Cc1nnc2c(-c3cccc4c3CCCN4c3n[nH]c4nc(N5CCC(C)(CN)CC5)cnc34)cccn12` [Compound 73] here?
Answer: Its IC50 is less than 1 µM.

Question: `COCc1cccc2c1CCCN2c1n[nH]c2nc(N3CCC4(CC3)CO[C@@H](C)[C@H]4N)cnc12` [Compound 390] was tested. Which IC50 did it give?
Answer: Its IC50 is less than 1 µM.

Question: For `C[C@@H]1OCC2(CCN(c3cnc4c(N5CCCc6c5ccc(C#N)c6-c5cnn(C)c5)n[nH]c4n3)CC2)[C@@H]1N` [Compound 210], which IC50 is on record?
Answer: The IC50 was 1 to 10 µM.

Question: How did the IC50 turn out when `C[C@@H]1OCC2(CCN(c3cnc4c(N5CCCc6c5cccc6N(S(C)(=O)=O)S(C)(=O)=O)n[nH]c4n3)CC2)[C@@H]1N` [Compound 344, N-(1-{6-[(3S,4S)-4-amino-3-methyl-2-oxa-8-azaspiro[4.5]decan-8-yl]-1H-pyrazolo[3,4-b]pyrazin-3-yl}-1,2,3,4-tetrahydroquinolin-5-yl)-N-methanesulfonylmethanesulfonamide] was run?
Answer: The IC50 was less than 1 µM.

Question: `C[C@@H]1OCC2(CCN(c3cnc4c(N5CCCc6c(CN7CCOC7=O)cccc65)n[nH]c4n3)CC2)[C@@H]1N` [Compound 459] was tested. Which IC50 did it give?
Answer: The IC50 was less than 1 µM.

Question: For `CC1(CN)CCN(c2cnc3c(N4CCc5c(-c6nccs6)cccc54)n[nH]c3n2)CC1` [Compound 173], which IC50 is on record?
Answer: Its IC50 is less than 1 µM.

Question: With `C[C@@H]1OCC2(CCN(c3cnc4c(N5CCCc6c5ccc(C#N)c6[C@@H]5CC(=O)N(C)C5)n[nH]c4n3)CC2)[C@@H]1N` [Compound 519] as the molecule, how does the IC50 read?
Answer: Its IC50 is less than 1 µM.

Question: For `CC1CCCCN1c1cnc2c(N3CCCc4ncccc43)n[nH]c2n1` (centres unmarked) [Compound 148], which IC50 is on record?
Answer: The IC50 was no less than 10 µM.

Question: Which IC50 does the source give for `C[C@@H]1C[C@@H](CN)CCN1c1cnc2c(N3CCCc4ncccc43)n[nH]c2n1` (racemic) [Compound 104, ((2R,4S)-1-(3-(3,4-dihydro-1,5-naphthyridin-1(2H)-yl)-1H-pyrazolo[3,4-b]pyrazin-6-yl)-2-methylpiperidin-4-yl)methanamine] here?
Answer: The IC50 was less than 1 µM.

Question: For `C[C@@H]1OCC2(CCN(c3cnc4c(N5CCN(CCO)c6cc(C#N)ccc65)n[nH]c4n3)CC2)[C@@H]1N` [Compound 439], which IC50 is on record?
Answer: The IC50 was less than 1 µM.

Question: `C[C@@H]1OCC2(CCN(c3cnc4c(N5CCc6c(C#N)cccc6C5)n[nH]c4n3)CC2)[C@@H]1N` [Compound 274] was tested. Which IC50 did it give?
Answer: Its IC50 is less than 1 µM.

Question: With `C[C@@H]1OCC2(CCN(c3cnc4c(N5CC[C@H](C)c6c(-c7cnn(C)c7)cccc65)n[nH]c4n3)CC2)[C@@H]1N` [Compound 278] as the molecule, how does the IC50 read?
Answer: The IC50 was less than 1 µM.

Question: With `C[C@@H]1OCC2(CCN(c3cnc4c(N5CCCc6nc(-c7cncnc7)ccc65)n[nH]c4n3)CC2)[C@@H]1N` [Compound 304] as the molecule, how does the IC50 read?
Answer: The IC50 was less than 1 µM.

Question: With `C[C@@H]1OCC2(CCN(c3cnc4c(N5CCCc6nc(C7CCOC7)ccc65)n[nH]c4n3)CC2)[C@@H]1N` (stereo partly drawn) [Compound 309, (3S,4S)-3-methyl-8-(3-(6-(tetrahydrofuran-3-yl)-3,4-dihydro-1,5-naphthyridin-1(2H)-yl)-1H-pyrazolo[3,4-b]pyrazin-6-yl)-2-oxa-8-azaspiro[4.5]decan-4-amine] as the molecule, how does the IC50 read?
Answer: Its IC50 is less than 1 µM.

Question: Which IC50 does the source give for `c1ccc(CC2CCCN2c2cnc3c(N4CCCc5ncccc54)n[nH]c3n2)cc1` (centres unmarked) [Compound 144] here?
Answer: The IC50 was no less than 10 µM.

Question: How did the IC50 turn out when `CC(=O)NCc1ccc2c(n1)CCCN2c1n[nH]c2nc(N3CCC4(CC3)CO[C@@H](C)[C@H]4N)cnc12` [Compound 306, N-[(5-{6-[(3S,4S)-4-amino-3-methyl-2-oxa-8-azaspiro[4.5]decan-8-yl]-1H-pyrazolo[3,4-b]pyrazin-3-yl}-5,6,7,8-tetrahydro-1,5-naphthyridin-2-yl)methyl]acetamide dihydrochloride] was run?
Answer: The IC50 was less than 1 µM.

Question: For `Cc1cccc2c1N(C1CC1)CCN2c1n[nH]c2nc(N3CCC4(CC3)CO[C@@H](C)[C@H]4N)cnc12` [Compound 379], which IC50 is on record?
Answer: The IC50 was less than 1 µM.

Question: For `C[C@@H]1OCC2(CCN(c3cnc4c(N5CC[C@H](C)c6nc(C(=O)NCc7cccnc7)ccc65)n[nH]c4n3)CC2)[C@@H]1N` [Compound 445], which IC50 is on record?
Answer: Its IC50 is less than 1 µM.

Question: `C[C@@H]1CCN(c2n[nH]c3nc(N4CCC5(CC4)CO[C@@H](C)[C@H]5N)cnc23)c2ccc(-c3ncon3)nc21` (single isomer, unassigned) [Compound 371] was tested. Which IC50 did it give?
Answer: The IC50 was less than 1 µM.

Question: Which IC50 does the source give for `C[C@@H]1OCC2(CCN(c3cnc4c(N5CCCc6nc(C(F)F)ccc65)n[nH]c4n3)CC2)[C@@H]1N` [Compound 297] here?
Answer: Its IC50 is less than 1 µM.

Question: `COCCS(=O)(=O)c1cccc2c1CCCN2c1n[nH]c2nc(N3CCC4(CC3)CO[C@@H](C)[C@H]4N)cnc12` [Compound 460] was tested. Which IC50 did it give?
Answer: Its IC50 is less than 1 µM.

Question: For `NC[C@@H]1CCN(c2cnc3c(N4CCCc5ncccc54)n[nH]c3n2)[C@@H](c2ccccc2)C1` [Compound 168], which IC50 is on record?
Answer: Its IC50 is 1 to 10 µM.

Question: `NC1CCCC12CCN(c1cnc3c(N4CCCc5ncccc54)n[nH]c3n1)CC2` (centres unmarked) [Compound 53, 8-(3-(3,4-dihydro-1,5-naphthyridin-1(2H)-yl)-1H-pyrazolo[3,4-b]pyrazin-6-yl)-8-azaspiro[4.5]decan-1-amine] was tested. Which IC50 did it give?
Answer: The IC50 was less than 1 µM.

Question: Which IC50 does the source give for `NCC1(F)CCN(c2cnc3c(Sc4ccccc4Cl)n[nH]c3n2)CC1` [Compound 485, (1-(3-((2-chlorophenyl)thio)-1H-pyrazolo[3,4-b]pyrazin-6-yl)-4-fluoropiperidin-4-yl)methanamine] here?
Answer: The IC50 was less than 1 µM.

Question: Which IC50 does the source give for `CC1(CN)CCN(c2cnc3c(N4CCc5cc(C(N)=O)ccc54)n[nH]c3n2)CC1` [Compound 114, 1-(6-(4-(aminomethyl)-4-methylpiperidin-1-yl)-1H-pyrazolo[3,4-b]pyrazin-3-yl)indoline-5-carboxamide] here?
Answer: Its IC50 is less than 1 µM.

Question: How did the IC50 turn out when `C[C@H]1CCN(c2n[nH]c3nc(N4CCC(C)(CN)CC4)cnc23)c2ccc(-c3ncon3)cc21` [Compound 183, 1-(4-methyl-1-{3-[(4S)-4-methyl-6-(1,2,4-oxadiazol-3-yl)-1,2,3,4-tetrahydroquinolin-1-yl]-1H-pyrazolo[3,4-b]pyrazin-6-yl}piperidin-4-yl)methanamine] was run?
Answer: The IC50 was less than 1 µM.

Question: Which IC50 does the source give for `C[C@@H]1OCC2(CCN(c3cnc4c(N5CCCc6c([C@H]7CC(=O)N(C)C7)cccc65)n[nH]c4n3)CC2)[C@@H]1N` [Compound 521] here?
Answer: The IC50 was less than 1 µM.

Question: With `c1ccc(CC2CCCN(c3cnc4c(N5CCCc6ncccc65)n[nH]c4n3)C2)cc1` (centres unmarked) [Compound 139] as the molecule, how does the IC50 read?
Answer: The IC50 was less than 1 µM.

Question: With `Cc1c(C#N)ccc2c1CCCN2c1n[nH]c2nc(N3CCC(C)(CN)CC3)cnc12` [Compound 120] as the molecule, how does the IC50 read?
Answer: Its IC50 is less than 1 µM.

Question: With `CSc1cccc2c1CCCN2c1n[nH]c2nc(N3CCC(C)(CN)CC3)cnc12` [Compound 191] as the molecule, how does the IC50 read?
Answer: The IC50 was less than 1 µM.
